Experimental data reported in EPA's ToxValDB 9.5.

Experiments:
Rattus norvegicus [1] = conditions: reproduction developmental; oral; M/F; forelimb hair loss + Parturition mortality
Rattus norvegicus [2] = conditions: oral, M/F
Homo sapiens [3] = conditions: clinical; duration: 5 minutes; inhalation; M; respiratory
Mus musculus [4] = conditions: oral
Mus musculus [5] = conditions: chronic; oral; M/F; lung and kidney histopathology
Homo sapiens [6] = conditions: clinical, oral, diet
Mus musculus [7] = conditions: repeat dose other; oral
Rattus norvegicus [8] = tested on: Rattus norvegicus
Mus musculus [9] = tested on: Mus musculus
Oryctolagus sp. = conditions: acute; dermal; New Zealand
Cricetulus sp. = conditions: oral, gavage, Hamster
Rattus norvegicus [10] = conditions: uterotrophic; duration: 3 days; oral; Active
Mus musculus [11] = conditions: uterotrophic; duration: 3 days; injection; intraperitoneal; Active
[12] = chronic, duration: 14 weeks, inhalation, F, Fischer 344
[13] = chronic, duration: 14 weeks, inhalation, M, Fischer 344
[14] = chronic, duration: 14 weeks, inhalation, F, B6C3F1
[15] = chronic, duration: 14 weeks, inhalation, M, B6C3F1

With `[P]` [Phosphorus] the LOAEL (Rattus norvegicus [1]) was 0.075 mg/kg-day, the NOAEL (Rattus norvegicus [1]) was 0.015 mg/kg-day and the NOAEL (Rattus norvegicus [2]; reproduction developmental, duration: 204 days, gavage, Sprague-Dawley, reproductive) was 0.015 mg/kg-day. It also gave an LOAEL (Homo sapiens [3]) of 187 mg/m3.
Work on `O=C1OC(=O)c2ccccc21` [Phthalic anhydride] yielded an LOAEL (Mus musculus [4]; chronic, duration: 104 weeks, diet, Kidney: Histopathology + Lung: Histopathology) of 1560 mg/kg-day and an LOAEL (Mus musculus [5]) of 1560 mg/kg-day.
Work on `CCN(CC)c1nc(C)cc(OP(=S)(OC)OC)n1` [Pirimiphos-methyl] yielded an NOEL (Homo sapiens [6]; duration: 28 days, M, Borderline ChE depression) of 0.25 mg/kg-day and an NOEL (Homo sapiens [6]; duration: 56 days, M/F, Transient plasma ChE depression) of 0.25 mg/kg-day.
For `ClC(Cl)=C(Cl)Cl` [Tetrachloroethylene], the NOAEL (Mus musculus [4]; subchronic, duration: 6 weeks, Liver: Hepatotoxicity) was 14 mg/kg-day, the LOAEL (Mus musculus [7]) was 7 mg/kg-day and the NOAEL (Mus musculus [7]) was 1.4 mg/kg-day.
With `CC(=O)[O-].CC(=O)[O-].[O]=[U+2]=[O]` [Uranyl acetate] the LOAEL (Mus musculus [7]) was 6.13 mg/kg-day and the NOAEL (Mus musculus [7]) was 3.07 mg/kg-day.
Compound `CC1=CCC2CC1C2(C)C` (stereo not drawn) [alpha-Pinene] has an LD50 (Rattus norvegicus [8]; acute, oral, Wistar) of 3700 mg/kg, an LOAEL (Rattus norvegicus [8]; [12]) of 340 mg/kg-day and an NOAEL (Rattus norvegicus [8]; [12]) of 170 mg/kg-day. The LOAEL (Rattus norvegicus [8]; [13]) was 42 mg/kg-day, the NOAEL (Rattus norvegicus [8]; [13]) was 21 mg/kg-day and the NOAEL (Rattus norvegicus [8]; developmental, duration: 10 days, oral, gavage, Wistar) was 260 mg/kg-day. It also gave an NOAEL (Rattus norvegicus [8]; reproduction developmental, duration: 10 days, oral, gavage, F, Wistar) of 260 mg/kg-day, an LOAEL (Mus musculus [9]; [14]) of 557 mg/m3 and an NOAEL (Mus musculus [9]; [14]) of 279 mg/m3. For the same compound, the LOAEL (Mus musculus [9]; [15]) was 557 mg/m3, the NOAEL (Mus musculus [9]; [15]) was 279 mg/m3 and the NOAEL (Mus musculus [9]; reproduction developmental, duration: 10 days, oral, gavage, F, CD1) was 560 mg/kg-day. The LD50 (Oryctolagus sp.) was > 5000 mg/kg, the NOAEL (Cricetulus sp.; developmental, duration: 10 days) was 600 mg/kg-day and the NOAEL (Cricetulus sp.; reproduction developmental, duration: 10 days, F) was 600 mg/kg-day. The NOAEL (Cricetulus sp.; reproduction developmental) was 600 mg/kg-day.
`ClC1C(Cl)C(Cl)C(Cl)C(Cl)C1Cl` (stereo not drawn) [beta-Hexachlorocyclohexane] gave an LEL (Rattus norvegicus [10]) of 3 mg/kg-day, an LEL (Mus musculus [11]) of 100 mg/kg-day and an NOAEL (Rattus norvegicus [2]; short-term, duration: 2 weeks, diet, Wistar, neurological) of 8 mg/kg-day. For the same compound, the LOAEL (Rattus norvegicus [2]; subchronic, duration: 13 weeks, diet, Wistar, hepatic) was 0.18 mg/kg-day.
